Three molecules from patent US20260297106A1, “SPIROCYCLIC SUBSTITUTED OXOISOINDOLINYL PIPERIDINE-2,6-DIONE COMPOUND” (Bristol-Myers Squibb Company, priority 2023, published 2026) can be followed below.

Test [1] concerns the target T1, IKZF2 Helios (Homo sapiens, UniProt Q96SW2+Q9UKS7). Put plainly: Human Regulatory T Cell Degradation Assay (IKZF2 Helios). More on the design: T cells were isolated from fresh healthy leukopaks; endogenous in cells; host or cells: FACS-sorted primary human CD4+ CD127low CD25+ Treg cells from healthy leukopaks. The test is classed as cell-based. The conditions noted are these: human regulatory T cells, 20 hours; for Dmax: Regulatory T cell, 100% = no detectable protein remaining, read-out: IKZF2 Helios max % deg. observed; for DC50: concentration reducing protein level by 50% vs DMSO. On the procedure: Cryopreserved human regulatory T cells were thawed in RPMI+10% FBS+20 ng/mL IL-2. After being spun at 1200 rpm for 5 mins, the cells were resuspended in RPMI+10% FBS+20 ng/ml and rested at 37° C. with 5% CO2 for 3 hours. The cells were then plated at 40,000 cells/well in 40 μL RPMI+10% FBS+20 ng/ml human IL~2 in a 384 well cell culture plate prior to using acoustic dispensing technology (ECHO 555) for adding compounds of interest. Cell cultures were incubated for 20 hours at 37° C. and 5% CO2. In order to facilitate analysis, cell cultures were spun down at 1200 rpm for 5 minutes and the supernatant was discarded using an EL406 plate washer. After washing three times with 70 μL PBS, cell pellets were resuspended in 50 μL of near IR viability staining solution (Life Technologies, Cat #L34975) and incubated for 30 minutes on ice protected from light. Cells were washed three times with 70 μL PBS+0.5% BSA using an EL406 plate washer. After shaking the plate to dislodge the cell pellet, cells were resuspended in 50 μL of Fixation Buffer (eBioScience FoxP3 buffer set 00-5523-00) for 60 minutes at room temperature. After centrifuging and discarding the supernatant, cells were permeabilized with 50 μL of permeabilization buffer (eBioScience FoxP3 buffer set 00-5523-00) for 10 minutes at room temperature. Following permeabilization, cells were spun down and the supernatant was replaced with 30 μL fluorescently labelled antibodies against the intracellular targets Helios (Helios-APC [BioLegend, Cat #137222, 1:50])]), Aiolos, and Ikaros Ix Permeabilization buffer and staining reactions were incubated for 1 hour at room temperature; protected from light. Subsequently, 30 μL of 1× Permeabilization buffer was added prior to centrifuging the cells and discarding the supernatant. Stained cells were resuspended in 30 μL of flow cytometry staining buffer (PBS+0.5% BSA) and analyzed using an Intellicyt Ique Plus flow cytometer.
Table B-1 lists the maximum observed degradation of the IKZF1 protein and IKZF2 protein as measured in the Human Regulatory Cell T Degradation assay. The results in Table B-1 were rounded to two digits. In the Human Regulatory T Cell Degradation assay, a value of 100% indicated no detectable protein remaining or complete degradation of the protein; and a value of 0% indicated no detectable degradation of the protein by the test compound.

The target in test [2] is T1, IKZF2 Helios. Put plainly: Human Regulatory T Cell Reprogramming Assay (IKZF2 Helios). In kind it is cell-based. On the set-up: T cells were isolated from fresh healthy leukopaks; endogenous in cells; host or cells: FACS-sorted primary human CD4+ CD127low CD25+ Treg cells from healthy leukopaks. The conditions noted are these: CD4+ CD127low CD25+ Treg cells, 12-13 days; for DC50: concentration reducing protein level by 50% vs DMSO; for Dmax: Regulatory T cell, human, read-out: Maximum Observed Degradation IKZF2 Helios. How it is done:
Human CD4^+ T cells were isolated from fresh healthy leukopaks (Stemcell Technologies) using the RosetteSep Human CD4^+ T cell enrichment cocktail (Stemcell Technologies) and Ficoll density gradient centrifugation. Leukopaks were diluted with an equal volume of phosphate-buffered saline (PBS [Gibco]) supplemented with 2% fetal bovine serum (FBS, VWR Lifescience) and incubated with RosetteSep Human CD4^+ T cell enrichment cocktail for 20 minutes before layering on Ficoll-Paque Plus solution (GE Health Care). The cell-rich interface layer was harvested and washed twice with PBS supplemented with 2% FBS. Regulatory T cells were then isolated manually using the EasySep Human CD4 CD1271WCD25^+ Regulatory T cell isolation kit (Stemcell Technologies) according to the manufacturer's instructions. Cells were rested overnight in Roswell Park Memorial Institute (RPMI) 1640 media (Gibco) supplemented with 10% FBS, Pen/Strep (Gibco), MEM-NEAA (Gibco), and sodium pyruvate (Gibco) in a humidified incubator (37° C., 5% CO2). Cells were then stained for CD4 (clone: RPA-T4, Biolegend), CD25 (clone: 2A3, BD Biosciences), and CD127 (clone: hIL-7R-M21, BD Biosciences). CD4^+ CD127^lowCD25^+ cells were sorted on a BD FACS Aria Fusion sorter to a purity of 95% or greater. Sorted cells were immediately used or cryopreserved for downstream assays.
Fresh or cryopreserved FACS-sorted CD4^+ CD127^lowCD25^+ Treg cells were cultured at 25,000-50,000 cells/well of 96-well round bottom plates in RPMI 1640 media (Gibco) supplemented with 10% FBS, Pen/Strep (Gibco), MEM-NEAA (Gibco), and sodium pyruvate (Gibco). Cells were stimulated with Treg Xpander beads (Thermo Fisher) at cells-to-beads ratio of 1:4 in the presence of 500 U/mL recombinant human IL-2 (Proleukin). Compounds were added at titrated doses and cells were incubated at 37° C., 5% CO2 for 12-13 days. Recombinant human IL-2 and compound were replenished every 2-3 days during the entire culture duration. On day 12 or 13, cells were restimulated with phorbol 12-myristate 13-acetate (PMA) and ionomycin in the presence of the protein transport inhibitors brefeldin A and monensin (eBioscience Cell Stimulation Cocktail plus protein transport inhibitors, 500×, Catalog number 00-4975-93) before proceeding with flow cytometry staining and analysis.
For flow cytometry staining, cells were washed twice with flow cytometry staining buffer (Thermo Fisher) and incubated in Human Tru-stain Fc block (Biolegend) for 10 minutes before adding eFluor780 viability dye (Thermo Fisher) and surface marker antibody cocktail for 30 minutes at 4° C. Cells were then fixed and permeabilized by incubation with FoxP3 transcription factor staining buffer (Thermo Fisher) for 30 minutes at 4° C. as per the kit manufacturer's instructions. Cells were washed twice with the Perm/Wash buffer supplied in the kit as per the manufacturer's instructions and incubated overnight at 4° C. with an intracellular antibody cocktail comprised of antibodies specific for the transcription factors shown in Table C. Cells were washed twice with Perm/Wash buffer and resuspended in flow cytometry staining buffer (Thermo Fisher) prior to acquisition. Sample acquisition and analysis was performed using a BD LSRFortessa (BD Biosciences) flow cytometer. Single stain controls for each fluorochrome were prepared using UltraComp eBead Compensation Beads (Thermo Fisher). Data were analyzed using FlowJo version 10 and GraphPad Prism Software.
Table C-1 lists the maximum observed degradation of the IKZF2 protein and IKZF4 protein as measured in the Human Regulatory T Cell Reprogramming assay. The results in Table C-1 were rounded to two digits. In the Human Regulatory T Cell Reprogramming assay, a value of 100% indicated no detectable protein remaining or complete degradation of the protein; and a value of 0% indicated no detectable degradation of the protein by the test compound.

T1 sequence (Q9UKS7 whole entry): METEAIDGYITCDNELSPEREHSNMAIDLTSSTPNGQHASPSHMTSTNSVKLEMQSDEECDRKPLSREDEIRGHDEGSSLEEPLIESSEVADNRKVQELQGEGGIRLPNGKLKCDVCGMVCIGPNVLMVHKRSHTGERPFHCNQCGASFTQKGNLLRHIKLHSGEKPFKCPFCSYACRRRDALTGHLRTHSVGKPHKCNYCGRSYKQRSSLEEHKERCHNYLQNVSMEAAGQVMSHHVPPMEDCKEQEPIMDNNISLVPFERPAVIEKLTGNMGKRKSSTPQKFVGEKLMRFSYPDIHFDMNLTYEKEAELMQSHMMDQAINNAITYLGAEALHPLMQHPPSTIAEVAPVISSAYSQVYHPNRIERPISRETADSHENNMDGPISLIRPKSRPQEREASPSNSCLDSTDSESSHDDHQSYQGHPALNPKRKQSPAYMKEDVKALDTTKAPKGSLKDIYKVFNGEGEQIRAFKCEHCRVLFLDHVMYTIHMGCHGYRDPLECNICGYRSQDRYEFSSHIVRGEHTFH
T1 sequence (Q96SW2 whole entry): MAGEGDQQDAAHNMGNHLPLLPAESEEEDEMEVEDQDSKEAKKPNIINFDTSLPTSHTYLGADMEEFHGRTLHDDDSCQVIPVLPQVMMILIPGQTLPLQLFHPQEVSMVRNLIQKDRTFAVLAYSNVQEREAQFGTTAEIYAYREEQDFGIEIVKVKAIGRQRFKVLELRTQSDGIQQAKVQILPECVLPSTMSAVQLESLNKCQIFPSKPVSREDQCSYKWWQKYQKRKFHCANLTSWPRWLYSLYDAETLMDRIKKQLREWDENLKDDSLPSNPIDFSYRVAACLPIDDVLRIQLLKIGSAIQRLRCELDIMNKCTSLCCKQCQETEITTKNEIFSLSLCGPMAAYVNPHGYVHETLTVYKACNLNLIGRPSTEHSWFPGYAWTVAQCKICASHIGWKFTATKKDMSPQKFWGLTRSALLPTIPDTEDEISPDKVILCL
T1 sequence (Q16531 whole entry partner): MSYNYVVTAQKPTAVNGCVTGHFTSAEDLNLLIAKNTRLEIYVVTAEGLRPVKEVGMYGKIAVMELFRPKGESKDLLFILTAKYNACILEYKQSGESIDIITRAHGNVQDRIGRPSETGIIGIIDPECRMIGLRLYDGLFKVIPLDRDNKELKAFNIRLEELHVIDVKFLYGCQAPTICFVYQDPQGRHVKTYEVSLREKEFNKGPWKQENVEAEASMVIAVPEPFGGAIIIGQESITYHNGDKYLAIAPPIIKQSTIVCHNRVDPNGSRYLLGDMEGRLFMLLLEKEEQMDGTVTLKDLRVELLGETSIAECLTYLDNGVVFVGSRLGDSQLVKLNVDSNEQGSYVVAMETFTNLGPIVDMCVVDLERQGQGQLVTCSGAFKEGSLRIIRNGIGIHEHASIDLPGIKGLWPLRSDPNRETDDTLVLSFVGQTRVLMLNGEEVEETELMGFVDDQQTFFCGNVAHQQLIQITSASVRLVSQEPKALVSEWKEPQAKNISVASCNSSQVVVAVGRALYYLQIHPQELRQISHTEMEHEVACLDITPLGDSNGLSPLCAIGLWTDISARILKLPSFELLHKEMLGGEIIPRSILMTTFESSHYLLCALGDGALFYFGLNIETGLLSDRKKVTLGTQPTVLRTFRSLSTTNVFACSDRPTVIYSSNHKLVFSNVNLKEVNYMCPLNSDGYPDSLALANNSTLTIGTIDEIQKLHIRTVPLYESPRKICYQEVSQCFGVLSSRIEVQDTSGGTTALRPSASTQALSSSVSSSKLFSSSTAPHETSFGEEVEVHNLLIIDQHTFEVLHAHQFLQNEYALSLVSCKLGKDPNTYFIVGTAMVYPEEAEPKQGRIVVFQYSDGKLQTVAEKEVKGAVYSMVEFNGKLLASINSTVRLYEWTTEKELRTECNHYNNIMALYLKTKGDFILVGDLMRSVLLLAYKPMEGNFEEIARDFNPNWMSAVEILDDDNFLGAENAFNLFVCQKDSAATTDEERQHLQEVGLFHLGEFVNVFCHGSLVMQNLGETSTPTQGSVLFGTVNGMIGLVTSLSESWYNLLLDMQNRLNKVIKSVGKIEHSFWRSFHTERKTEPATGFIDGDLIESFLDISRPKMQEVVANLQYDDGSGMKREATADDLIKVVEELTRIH

Consider `O=C1CCC(N2Cc3c(ccc(-c4cc(CN5CC(c6ccccc6)C5)ccn4)c3F)C2=O)C(=O)N1` (stereo not drawn) [Comparative Compound A, 3-(4-fluoro-1-oxo-5-(4-((3-phenylazetidin-1-yl)methyl)pyridin-2-yl)isoindolin-2-yl) piperidine-2,6-dione], for which the Dmax at IKZF2 Helios [1] came out at 101%; on IKZF2 Helios [2], 92%. The DC50 on IKZF2 Helios [1] worked out at 2.9 nM; at IKZF2 Helios [2] it was 2.2 nM.
The matching figures for `Nc1nc(-c2ccc3c(c2)CN(C2CCC(=O)NC2=O)C3=O)ccc1CN1CC2(CCC2)C1` (stereo not drawn) [Comparative Compound B, 3-(5-(5-((2-azaspiro[3.3]heptan-2-yl)methyl)-6-aminopyridin-2-yl)-1-oxoisoindolin-2-yl) piperidine-2,6-dione]: 97%, 90%, 11 nM and 25 nM.
Take `Nc1nc(-c2ccc3c(c2F)CN(C2CCC(=O)NC2=O)C3=O)ccc1CN1CC2(CCCOC2)C1` (stereo not drawn) [Example 1, 3-(5-(5-((6-oxa-2-azaspiro[3.5]nonan-2-yl)methyl)-6-aminopyridin-2-yl)-4-fluoro-1-oxoisoindolin-2-yl) piperidine-2,6-dione]: at IKZF2 Helios [1], the Dmax worked out at 100% and the DC50 amounted to 10 nM. Besides, on IKZF2 Helios [2], the DC50 was found to be 38 nM and the Dmax was determined as 85%.
